Experimental data reported in paper PMC9084902, “Low-Molecular Weight Protamine Overcomes Chondroitin Sulfate Inhibition of Neural Regeneration” (Frontiers in Cell and Developmental Biology, 2022).

Test system: mouse cervical hemicontusion model
Experiment: cylinder test, C5 hemicontusion, subcutaneous delivery
Type: in vivo, C57BL6/NHsd mouse
Conditions: 16 µg s.c. daily 49 days; n = 7–13; difference not statistically significant
Description: The effectiveness of systemically delivered LMWP in treatment of spinal cord trauma was tested in the cervical hemicontusion model (Figure 1B). Baseline behavior was assessed 1 week before the trauma surgery, and the results were used for balanced distribution of animals to the 3 experimental groups (“sham”, “trauma + PBS” and “trauma + LMWP”). Each housing cage contained animals from all three groups. Subcutaneous injections to the back area were started on the next day after the trauma and continued daily for 49 days. LMWP was injected subcutaneously at the 16 µg dose in 200 µl of sterile PBS. The groups “sham” and “trauma + PBS” got the same volume of PBS. Behavioral assessment was started 2 weeks after the trauma and finished at the week 12.
The mouse was placed into the glass cylinder of 13 cm in diameter and 15 cm high. A mirror was positioned at the angle behind the cylinder for better observation. The mouse was videotaped for the first 20 exploratory vertical rearings or for 5 min. The number of rearings in which the mouse used the right (impaired), the left or both limbs for support against the wall was measured. Paw preference was calculated as the ratio of total number of left limb use (left + both) to total number of right (impaired) limb use (right + both). A trial with less than 5 rearings within 5 min was excluded from the analysis.

With “VSRRRRRRGGRRRR [LMWP, low-molecular weight protamine]” the “front paw use asymmetry versus PBS” value was “tendency for better improvement of the LMWP group compared to the PBS group although the difference was not statistically significant”.
